Measured values from ChEMBL document CHEMBL4251595, “Green approach for the synthesis of thiophenyl pyrazoles and isoxazoles by adopting 1,3-dipolar cycloaddition methodology and their antimicrobial activity” (2018).
In brackets after ≈: the same amount, converted by molar mass.

What was measured:
Type in all cases: functional
Pseudomonas aeruginosa [1] = assay: Antimicrobial activity against Pseudomonas aeruginosa after 24 hrs by broth dilution test
Pseudomonas aeruginosa [2] = assay: Antimicrobial activity against Pseudomonas aeruginosa assessed as zone of inhibition at 75 ug/well after 24 hrs by agar well diffusion method; settings: read-out: DIZ
Aspergillus niger [3] = assay: Fungicidal activity against Aspergillus niger incubated for 48 hrs followed by replating on PDA and incubated for 48 hrs by broth dilution test
Staphylococcus aureus [4] = assay: Antimicrobial activity against Staphylococcus aureus assessed as zone of inhibition at 75 ug/well after 24 hrs by agar well diffusion method; settings: read-out: DIZ
Klebsiella pneumoniae [5] = assay: Antimicrobial activity against Klebsiella pneumoniae assessed as zone of inhibition at 50 ug/well after 24 hrs by agar well diffusion method; settings: read-out: DIZ
Aspergillus niger [6] = assay: Antifungal activity against Aspergillus niger assessed as zone of inhibition at 50 ug/well after 48 hrs by agar well diffusion method; settings: read-out: DIZ
Klebsiella pneumoniae [7] = assay: Antimicrobial activity against Klebsiella pneumoniae after 24 hrs by broth dilution test
Bacillus subtilis [8] = assay: Bactericidal activity against Bacillus subtilis incubated for 24 hrs followed by replating on sterile nutrient broth and incubated for 24 hrs by broth dilution test
Aspergillus niger [9] = assay: Antifungal activity against Aspergillus niger after 48 hrs by broth dilution test
Penicillium chrysogenum [10] = assay: Antifungal activity against Penicillium chrysogenum assessed as zone of inhibition at 75 ug/well after 48 hrs by agar well diffusion method; settings: read-out: DIZ
Bacillus subtilis [11] = assay: Antimicrobial activity against Bacillus subtilis after 24 hrs by broth dilution test
Aspergillus niger [12] = assay: Antifungal activity against Aspergillus niger assessed as zone of inhibition at 75 ug/well after 48 hrs by agar well diffusion method; settings: read-out: DIZ
Staphylococcus aureus [13] = assay: Antimicrobial activity against Staphylococcus aureus assessed as zone of inhibition at 50 ug/well after 24 hrs by agar well diffusion method; settings: read-out: DIZ
Pseudomonas aeruginosa [14] = assay: Bactericidal activity against Pseudomonas aeruginosa incubated for 24 hrs followed by replating on sterile nutrient broth and incubated for 24 hrs by broth dilution test
Penicillium chrysogenum [15] = assay: Antifungal activity against Penicillium chrysogenum after 48 hrs by broth dilution test
Pseudomonas aeruginosa [16] = assay: Antimicrobial activity against Pseudomonas aeruginosa assessed as zone of inhibition at 100 ug/well after 24 hrs by agar well diffusion method; settings: read-out: DIZ
Staphylococcus aureus [17] = assay: Antimicrobial activity against Staphylococcus aureus assessed as zone of inhibition at 100 ug/well after 24 hrs by agar well diffusion method; settings: read-out: DIZ
Klebsiella pneumoniae [18] = assay: Bactericidal activity against Klebsiella pneumoniae incubated for 24 hrs followed by replating on sterile nutrient broth and incubated for 24 hrs by broth dilution test
Klebsiella pneumoniae [19] = assay: Antimicrobial activity against Klebsiella pneumoniae assessed as zone of inhibition at 75 ug/well after 24 hrs by agar well diffusion method; settings: read-out: DIZ
Penicillium chrysogenum [20] = assay: Fungicidal activity against Penicillium chrysogenum incubated for 48 hrs followed by replating on PDA and incubated for 48 hrs by broth dilution test
Penicillium chrysogenum [21] = assay: Antifungal activity against Penicillium chrysogenum assessed as zone of inhibition at 100 ug/well after 48 hrs by agar well diffusion method; settings: read-out: DIZ
Klebsiella pneumoniae [22] = assay: Antimicrobial activity against Klebsiella pneumoniae assessed as zone of inhibition at 100 ug/well after 24 hrs by agar well diffusion method; settings: read-out: DIZ
Pseudomonas aeruginosa [23] = assay: Antimicrobial activity against Pseudomonas aeruginosa assessed as zone of inhibition at 50 ug/well after 24 hrs by agar well diffusion method; settings: read-out: DIZ
Bacillus subtilis [24] = assay: Antimicrobial activity against Bacillus subtilis assessed as zone of inhibition at 75 ug/well after 24 hrs by agar well diffusion method; settings: read-out: DIZ
Bacillus subtilis [25] = assay: Antimicrobial activity against Bacillus subtilis assessed as zone of inhibition at 100 ug/well after 24 hrs by agar well diffusion method; settings: read-out: DIZ
Aspergillus niger [26] = assay: Antifungal activity against Aspergillus niger assessed as zone of inhibition at 100 ug/well after 48 hrs by agar well diffusion method; settings: read-out: DIZ
Staphylococcus aureus [27] = assay: Antimicrobial activity against Staphylococcus aureus after 24 hrs by broth dilution test
Penicillium chrysogenum [28] = assay: Antifungal activity against Penicillium chrysogenum assessed as zone of inhibition at 50 ug/well after 48 hrs by agar well diffusion method; settings: read-out: DIZ
Bacillus subtilis [29] = assay: Antimicrobial activity against Bacillus subtilis assessed as zone of inhibition at 50 ug/well after 24 hrs by agar well diffusion method; settings: read-out: DIZ
Staphylococcus aureus [30] = assay: Bactericidal activity against Staphylococcus aureus incubated for 24 hrs followed by replating on sterile nutrient broth and incubated for 24 hrs by broth dilution test

MIC (Pseudomonas aeruginosa [1]) [µg/mL] | MIC (Klebsiella pneumoniae [7]) [µg/mL] | MIC (Aspergillus niger [9]) [µg/mL] | MIC (Bacillus subtilis [11]) [µg/mL] | MIC (Penicillium chrysogenum [15]) [µg/mL] | SMILES | zone of inhibition at 75 µg/disc (Pseudomonas aeruginosa [2]) [mm] | MFC (Aspergillus niger [3]) [µg/mL] | zone of inhibition at 75 µg/disc (Staphylococcus aureus [4]) [mm] | zone of inhibition at 50 µg/disc (Klebsiella pneumoniae [5]) [mm] | zone of inhibition at 50 µg/disc (Aspergillus niger [6]) [mm] | MBC (Bacillus subtilis [8]) [µg/mL] | zone of inhibition at 75 µg/disc (Penicillium chrysogenum [10]) [mm] | zone of inhibition at 75 µg/disc (Aspergillus niger [12]) [mm] | zone of inhibition at 50 µg/disc (Staphylococcus aureus [13]) [mm] | MBC (Pseudomonas aeruginosa [14]) [µg/mL] | zone of inhibition at 100 µg/disc (Pseudomonas aeruginosa [16]) [mm] | zone of inhibition at 100 µg/disc (Staphylococcus aureus [17]) [mm] | MBC (Klebsiella pneumoniae [18]) [µg/mL] | zone of inhibition at 75 µg/disc (Klebsiella pneumoniae [19]) [mm] | MFC (Penicillium chrysogenum [20]) [µg/mL] | further results
25 (≈ 67.1 µM) | 25 (≈ 67.1 µM) | 25 (≈ 67.1 µM) | 6.25 (≈ 16.8 µM) | 100 (≈ 268 µM) | O=C(NS(=O)(=O)/C=C/c1ccc([N+](=O)[O-])cc1)c1ccc(Cl)s1 | 21 | 100 (≈ 268 µM) | 24 | 27 | 27 | 12.5 (≈ 33.5 µM) | 26 | 29 | 21 | 100 (≈ 268 µM) | 24 | 26 | 100 (≈ 268 µM) | 29 | > 200 | zone of inhibition at 100 µg/disc (Penicillium chrysogenum [21]): 28 mm; zone of inhibition at 100 µg/disc (Klebsiella pneumoniae [22]): 33 mm; zone of inhibition at 50 µg/disc (Pseudomonas aeruginosa [23]): 19 mm; zone of inhibition at 75 µg/disc (Bacillus subtilis [24]): 34 mm; zone of inhibition at 100 µg/disc (Bacillus subtilis [25]): 38 mm; zone of inhibition at 100 µg/disc (Aspergillus niger [26]): 31 mm; MIC (Staphylococcus aureus [27]): 50 µg/mL (≈ 134 µM); zone of inhibition at 50 µg/disc (Penicillium chrysogenum [28]): 24 mm; zone of inhibition at 50 µg/disc (Bacillus subtilis [29]): 31 mm; MBC (Staphylococcus aureus [30]): 200 µg/mL (≈ 536 µM)
12.5 (≈ 27.4 µM) | 25 (≈ 54.9 µM) | 6.25 (≈ 13.7 µM) | 6.25 (≈ 13.7 µM) | 50 (≈ 110 µM) | O=C(NS(=O)(=O)c1c(-c2ccccc2)noc1-c1ccc([N+](=O)[O-])cc1)c1cccs1 | 23 | 12.5 (≈ 27.4 µM) | 28 | 31 | 33 | 12.5 (≈ 27.4 µM) | 28 | 35 | 25 | 50 (≈ 110 µM) | 26 | 30 | 100 (≈ 220 µM) | 34 | 200 (≈ 439 µM) | zone of inhibition at 100 µg/disc (Penicillium chrysogenum [21]): 30 mm; zone of inhibition at 100 µg/disc (Klebsiella pneumoniae [22]): 36 mm; zone of inhibition at 50 µg/disc (Pseudomonas aeruginosa [23]): 21 mm; zone of inhibition at 75 µg/disc (Bacillus subtilis [24]): 38 mm; zone of inhibition at 100 µg/disc (Bacillus subtilis [25]): 42 mm; zone of inhibition at 100 µg/disc (Aspergillus niger [26]): 38 mm; MIC (Staphylococcus aureus [27]): 50 µg/mL (≈ 110 µM); zone of inhibition at 50 µg/disc (Penicillium chrysogenum [28]): 25 mm; zone of inhibition at 50 µg/disc (Bacillus subtilis [29]): 34 mm; MBC (Staphylococcus aureus [30]): 200 µg/mL (≈ 439 µM)
25 (≈ 73.9 µM) | 50 (≈ 148 µM) | 25 (≈ 73.9 µM) | 12.5 (≈ 36.9 µM) | 100 (≈ 296 µM) | O=C(NS(=O)(=O)/C=C/c1ccc([N+](=O)[O-])cc1)c1cccs1 | 19 | 100 (≈ 296 µM) | 22 | 26 | 23 | 50 (≈ 148 µM) | 24 | 25 | 19 | 100 (≈ 296 µM) | 21 | 25 | 200 (≈ 591 µM) | 30 | > 200 | zone of inhibition at 100 µg/disc (Penicillium chrysogenum [21]): 27 mm; zone of inhibition at 100 µg/disc (Klebsiella pneumoniae [22]): 31 mm; zone of inhibition at 50 µg/disc (Pseudomonas aeruginosa [23]): 16 mm; zone of inhibition at 75 µg/disc (Bacillus subtilis [24]): 32 mm; zone of inhibition at 100 µg/disc (Bacillus subtilis [25]): 36 mm; zone of inhibition at 100 µg/disc (Aspergillus niger [26]): 28 mm; MIC (Staphylococcus aureus [27]): 100 µg/mL (≈ 296 µM); zone of inhibition at 50 µg/disc (Penicillium chrysogenum [28]): 22 mm; zone of inhibition at 50 µg/disc (Bacillus subtilis [29]): 30 mm; MBC (Staphylococcus aureus [30]): > 200 µg/mL
